# According to paper PMC5218480 (PLoS ONE, 2017):
# System: MV-4-11 cells
# Assay: Gene expression microarray analysis (Affymetrix PrimeView) and GSEA
# Format: cell-based, human
# Parameters: RFU PODN (11730768_x_at) / Fold change /veh PODN (11730768_x_at) / RFU LINC00158 (11744669_a_at) / Fold change /veh LINC00158 (11744669_a_at) / RFU DUSP10 (11751237_a_at) / Fold change /veh DUSP10 (11751237_a_at) / RFU ID3 (11757404_x_at) / Fold change /veh ID3 (11757404_x_at) / RFU PLEKHG5 (11737974_s_at) / Fold change /veh PLEKHG5 (11737974_s_at) / RFU LRRC4B (11730491_at) / Fold change /veh LRRC4B (11730491_at) / RFU GIMAP4 (11747438_a_at) / Fold change /veh GIMAP4 (11747438_a_at) / RFU KRT8 (11758183_x_at) / Fold change /veh KRT8 (11758183_x_at) / RFU CNN1 (11734310_a_at) / Fold change /veh CNN1 (11734310_a_at) / RFU VPS37D (11726825_at) / Fold change /veh VPS37D (11726825_at) / RFU C10orf10 (11716522_x_at) / Fold change /veh C10orf10 (11716522_x_at) / RFU KIR2DL2 /// KIR2DL4 /// KIR2DL5A /// KIR2DL5B /// KIR2DS1 /// KIR2DS2 /// KIR2DS3 /// KIR2DS4 /// KIR3DL3 /// KIR3DL3 /// KIR3DS1 (11738374_at) / Fold change /veh KIR2DL2 /// KIR2DL4 /// KIR2DL5A /// KIR2DL5B /// KIR2DS1 /// KIR2DS2 /// KIR2DS3 /// KIR2DS4 /// KIR3DL3 /// KIR3DL3 /// KIR3DS1 (11738374_at) / RFU C1QL1 (11718748_at) / Fold change /veh C1QL1 (11718748_at) / RFU TMPRSS4 (11747572_a_at) / Fold change /veh TMPRSS4 (11747572_a_at) / RFU HAMP (11756126_x_at) / Fold change /veh HAMP (11756126_x_at) / RFU RNFT2 (11725882_a_at) / Fold change /veh RNFT2 (11725882_a_at) / RFU NR4A2 (11747474_a_at) / Fold change /veh NR4A2 (11747474_a_at) / RFU ABCC12 (11746883_a_at) / Fold change /veh ABCC12 (11746883_a_at) / RFU TMEM136 (11760407_x_at) / Fold change /veh TMEM136 (11760407_x_at) / RFU CLDN22 /// WWC2 (11732394_at) / Fold change /veh CLDN22 /// WWC2 (11732394_at) / RFU HLA-DPB1 (11760878_x_at) / Fold change /veh HLA-DPB1 (11760878_x_at) / RFU SPINT1 (11716480_a_at) / Fold change /veh SPINT1 (11716480_a_at) / RFU GAP43 (11754022_s_at) / Fold change /veh GAP43 (11754022_s_at) / RFU A4GNT (11735810_at) / Fold change /veh A4GNT (11735810_at) / RFU PRB3 (11715151_x_at) / Fold change /veh PRB3 (11715151_x_at) / RFU TUBB4B (11761932_at) / Fold change /veh TUBB4B (11761932_at) / RFU CAPN14 (11732068_a_at) / Fold change /veh CAPN14 (11732068_a_at) / RFU TMCC2 (11721928_a_at) / Fold change /veh TMCC2 (11721928_a_at) / RFU IRGQ (11745062_a_at) / Fold change /veh IRGQ (11745062_a_at) / RFU FAM174B (11720279_a_at) / Fold change /veh FAM174B (11720279_a_at) / RFU TMPRSS4 (11748680_a_at) / Fold change /veh TMPRSS4 (11748680_a_at) / RFU FAM212B (11763350_a_at) / Fold change /veh FAM212B (11763350_a_at) / RFU PLEKHG5 (11743358_a_at) / Fold change /veh PLEKHG5 (11743358_a_at) / RFU ZSCAN30 (11745921_a_at) / Fold change /veh ZSCAN30 (11745921_a_at) / RFU CMKLR1 (11741424_a_at) / Fold change /veh CMKLR1 (11741424_a_at) / RFU LOC101060620 /// MAPK8IP1 (11723275_at) / Fold change /veh LOC101060620 /// MAPK8IP1 (11723275_at) / RFU SPTSSB (11747773_x_at) / Fold change /veh SPTSSB (11747773_x_at) / RFU PRSS12 (11739890_at) / Fold change /veh PRSS12 (11739890_at) / RFU BIN1 (11741810_x_at) / Fold change /veh BIN1 (11741810_x_at) / RFU WNT11 (11732464_a_at) / Fold change /veh WNT11 (11732464_a_at) / RFU C10orf10 (11716521_a_at) / Fold change /veh C10orf10 (11716521_a_at) / RFU C5orf56 (11738089_at) / Fold change /veh C5orf56 (11738089_at) / RFU CYB561 (11721691_x_at) / Fold change /veh CYB561 (11721691_x_at) / RFU ANKRD19P (11752326_a_at) / Fold change /veh ANKRD19P (11752326_a_at) / RFU OR2T12 /// OR2T33 /// OR2T8 (11738714_s_at) / Fold change /veh OR2T12 /// OR2T33 /// OR2T8 (11738714_s_at) / RFU VCAN (11748164_a_at) / Fold change /veh VCAN (11748164_a_at) / RFU JSRP1 (11732532_at) / Fold change /veh JSRP1 (11732532_at) / RFU KRTAP10-11 (11738290_x_at) / Fold change /veh KRTAP10-11 (11738290_x_at) / RFU MYO3A (11730013_a_at) / Fold change /veh MYO3A (11730013_a_at) / RFU EBF3 (11725865_a_at) / Fold change /veh EBF3 (11725865_a_at) / RFU CAMK2N1 (11719241_x_at) / Fold change /veh CAMK2N1 (11719241_x_at) / RFU C5orf56 (11738088_a_at) / Fold change /veh C5orf56 (11738088_a_at) / RFU OLFML3 (11715873_a_at) / Fold change /veh OLFML3 (11715873_a_at) / RFU LOC100653217 /// NTM (11731650_a_at) / Fold change /veh LOC100653217 /// NTM (11731650_a_at) / RFU MAPK11 (11762145_a_at) / Fold change /veh MAPK11 (11762145_a_at) / RFU FIZ1 (11724087_x_at) / Fold change /veh FIZ1 (11724087_x_at) / RFU OASL (11726364_x_at) / Fold change /veh OASL (11726364_x_at) / RFU SOX15 (11748057_x_at) / Fold change /veh SOX15 (11748057_x_at) / RFU CD79A (11719716_a_at) / Fold change /veh CD79A (11719716_a_at) / RFU HIST1H1D (11736915_at) / Fold change /veh HIST1H1D (11736915_at) / RFU CASKIN2 (11723855_a_at) / Fold change /veh CASKIN2 (11723855_a_at) / RFU LOC730098 (11760151_x_at) / Fold change /veh LOC730098 (11760151_x_at) / RFU OR4N2 (11742367_at) / Fold change /veh OR4N2 (11742367_at) / RFU PRRT2 (11749266_a_at) / Fold change /veh PRRT2 (11749266_a_at) / RFU SNX32 (11753110_a_at) / Fold change /veh SNX32 (11753110_a_at) / RFU CDHR5 (11726645_a_at) / Fold change /veh CDHR5 (11726645_a_at) / RFU RCAN1 (11760418_a_at) / Fold change /veh RCAN1 (11760418_a_at) / RFU FAM167A (11723789_a_at) / Fold change /veh FAM167A (11723789_a_at) / RFU FAM26E (11764081_at) / Fold change /veh FAM26E (11764081_at) / RFU ISYNA1 (11749810_s_at) / Fold change /veh ISYNA1 (11749810_s_at) / RFU ACY1 (11761880_at) / Fold change /veh ACY1 (11761880_at) / RFU 11764098_at / Fold change /veh 11764098_at / RFU SAMD14 (11745864_x_at) / Fold change /veh SAMD14 (11745864_x_at) / RFU NPB (11741838_a_at) / Fold change /veh NPB (11741838_a_at) / RFU TMPRSS6 (11731388_a_at) / Fold change /veh TMPRSS6 (11731388_a_at) / RFU KRTAP10-2 (11738614_at) / Fold change /veh KRTAP10-2 (11738614_at) / RFU ARHGAP8 /// PRR5-ARHGAP8 (11727945_x_at) / Fold change /veh ARHGAP8 /// PRR5-ARHGAP8 (11727945_x_at) / RFU KRTAP5-7 /// NADSYN1 (11734609_at) / Fold change /veh KRTAP5-7 /// NADSYN1 (11734609_at) / RFU RASL12 (11751679_a_at) / Fold change /veh RASL12 (11751679_a_at) / RFU CDKN2B (11736163_a_at) / Fold change /veh CDKN2B (11736163_a_at) / RFU PRF1 (11729649_at) / Fold change /veh PRF1 (11729649_at) / RFU, ZNF638 /// ZNF638-IT1 / Fold change vs veh, ZNF638 /// ZNF638-IT1 / RFU, PANK3 / Fold change vs veh, PANK3 / RFU, SH3YL1 / Fold change vs veh, SH3YL1 / RFU, ZEB2 / Fold change vs veh, ZEB2 / RFU, NRIP1 / Fold change vs veh, NRIP1 / RFU, PTTG1IP / Fold change vs veh, PTTG1IP / RFU, CAPN2 / Fold change vs veh, CAPN2 / RFU, MED14 / Fold change vs veh, MED14 / RFU, SNORA58 / Fold change vs veh, SNORA58 / RFU, C1orf63 / Fold change vs veh, C1orf63 / RFU, LRRFIP1 / Fold change vs veh, LRRFIP1 / RFU, NDUFAF7 / Fold change vs veh, NDUFAF7 / RFU, SLC12A2 / Fold change vs veh, SLC12A2 / RFU, IBTK / Fold change vs veh, IBTK / RFU, ESF1 / Fold change vs veh, ESF1 / Fold change vs veh, TMEM50B / RFU, TAOK1 / Fold change vs veh, TAOK1 / RFU, ACBD3 / Fold change vs veh, ACBD3 / RFU, TMA16 / Fold change vs veh, TMA16 / RFU, RWDD3 / Fold change vs veh, RWDD3 / RFU, BCAT1 / Fold change vs veh, BCAT1 / RFU, EDEM3 / Fold change vs veh, EDEM3 / RFU, TMEM33 / Fold change vs veh, TMEM33 / RFU, WDR75 / Fold change vs veh, WDR75 / RFU, AHCTF1 / Fold change vs veh, AHCTF1 / RFU, TFRC / Fold change vs veh, TFRC / RFU, ZDHHC17 / Fold change vs veh, ZDHHC17 / RFU, NOM1 / Fold change vs veh, NOM1 / RFU, ARL8B / Fold change vs veh, ARL8B / RFU, ZBTB11 / Fold change vs veh, ZBTB11 / RFU, TAMM41 / Fold change vs veh, TAMM41 / RFU, KIAA1704 /// LOC100996395 / Fold change vs veh, KIAA1704 /// LOC100996395 / RFU, ING1 / Fold change vs veh, ING1 / RFU, TRMT61B / Fold change vs veh, TRMT61B / RFU, FUBP3 / Fold change vs veh, FUBP3 / RFU, TP53 / Fold change vs veh, TP53 / RFU, TNKS2 / Fold change vs veh, TNKS2 / RFU, ZFP14 / Fold change vs veh, ZFP14 / RFU, ACTR2 / Fold change vs veh, ACTR2 / RFU, PPP3R1 / Fold change vs veh, PPP3R1 / RFU, PIK3R1 / Fold change vs veh, PIK3R1 / RFU, HNRNPA1 / Fold change vs veh, HNRNPA1 / RFU, RNF170 / Fold change vs veh, RNF170 / RFU, ZNF28 / Fold change vs veh, ZNF28 / RFU, RNGTT / Fold change vs veh, RNGTT / RFU, OGT / Fold change vs veh, OGT / RFU, BRD1 / Fold change vs veh, BRD1 / RFU, MARS / Fold change vs veh, MARS / RFU, ZNF655 / Fold change vs veh, ZNF655 / RFU, FAHD1 / Fold change vs veh, FAHD1 / RFU, BDP1 / Fold change vs veh, BDP1 / RFU, LRRCC1 / Fold change vs veh, LRRCC1 / RFU, ARID1A / Fold change vs veh, ARID1A / RFU, ZNF146 / Fold change vs veh, ZNF146 / RFU, ZNF330 / Fold change vs veh, ZNF330 / RFU, GPN3 / Fold change vs veh, GPN3 / RFU, C9orf123 / Fold change vs veh, C9orf123 / RFU, N4BP2L2 / Fold change vs veh, N4BP2L2 / RFU, ARFIP1 / Fold change vs veh, ARFIP1 / RFU, FAM179B / Fold change vs veh, FAM179B / RFU, BCL10 / Fold change vs veh, BCL10 / RFU, UHRF1BP1L / Fold change vs veh, UHRF1BP1L / RFU, BET1 / Fold change vs veh, BET1 / RFU, CNOT2 / Fold change vs veh, CNOT2 / RFU, ZNF268 / Fold change vs veh, ZNF268 / Fold change vs veh, ZNF507 / RFU, DGCR2 / Fold change vs veh, DGCR2 / RFU, WDSUB1 / Fold change vs veh, WDSUB1 / Fold change vs veh, HSP90B1 /// MIR3652 / RFU, ADSS / Fold change vs veh, ADSS / RFU, GK / Fold change vs veh, GK / RFU, ZNF148 / Fold change vs veh, ZNF148 / RFU, TAF9 / Fold change vs veh, TAF9 / RFU, SLC1A5 / Fold change vs veh, SLC1A5 / RFU, SLMO2 / Fold change vs veh, SLMO2 / RFU, ABCC4 / Fold change vs veh, ABCC4 / RFU, LOC101060439 /// RAP1B / Fold change vs veh, LOC101060439 /// RAP1B / RFU, RFX7 / Fold change vs veh, RFX7 / RFU, GTPBP10 / Fold change vs veh, GTPBP10 / RFU, CNEP1R1 / Fold change vs veh, CNEP1R1 / RFU, BIVM-ERCC5 /// ERCC5 / Fold change vs veh, BIVM-ERCC5 /// ERCC5 / RFU, ILF3 / Fold change vs veh, ILF3 / RFU 11762660_at / Fold change /veh 11762660_at / RFU VCAN (11757783_s_at) / Fold change /veh VCAN (11757783_s_at) / RFU DDX43 (11728927_at) / Fold change /veh DDX43 (11728927_at) / RFU KRT8 (11758188_x_at) / Fold change /veh KRT8 (11758188_x_at) / RFU NKD1 (11759106_at) / Fold change /veh NKD1 (11759106_at) / RFU SRD5A1 (11742802_a_at) / Fold change /veh SRD5A1 (11742802_a_at) / RFU TPSAB1 /// TPSB2 (11721975_s_at) / Fold change /veh TPSAB1 /// TPSB2 (11721975_s_at) / RFU GSTM3 (11746129_a_at) / Fold change /veh GSTM3 (11746129_a_at) / RFU IL23R (11737362_x_at) / Fold change /veh IL23R (11737362_x_at) / RFU TMEM51 (11727254_a_at) / Fold change /veh TMEM51 (11727254_a_at) / RFU PIWIL2 (11732686_x_at) / Fold change /veh PIWIL2 (11732686_x_at) / RFU ORM1 (11744905_x_at) / Fold change /veh ORM1 (11744905_x_at) / RFU CCDC152 (11743942_at) / Fold change /veh CCDC152 (11743942_at) / RFU ECM1 (11717891_a_at) / Fold change /veh ECM1 (11717891_a_at) / RFU IL23R (11748794_a_at) / Fold change /veh IL23R (11748794_a_at) / RFU TNFAIP8L3 (11732012_x_at) / Fold change /veh TNFAIP8L3 (11732012_x_at) / RFU MBOAT4 (11741988_at) / Fold change /veh MBOAT4 (11741988_at) / RFU 11764193_at / Fold change /veh 11764193_at / RFU TMEM53 (11763286_at) / Fold change /veh TMEM53 (11763286_at) / RFU MAGEB2 (11727129_at) / Fold change /veh MAGEB2 (11727129_at) / RFU TMEM200A (11744735_a_at) / Fold change /veh TMEM200A (11744735_a_at) / RFU CCDC152 (11751479_a_at) / Fold change /veh CCDC152 (11751479_a_at) / RFU FAM211A (11726209_a_at) / Fold change /veh FAM211A (11726209_a_at) / RFU RGS16 (11746705_a_at) / Fold change /veh RGS16 (11746705_a_at) / RFU VCAN (11755009_s_at) / Fold change /veh VCAN (11755009_s_at) / RFU RHOB (11743442_s_at) / Fold change /veh RHOB (11743442_s_at) / RFU RGS16 (11720943_a_at) / Fold change /veh RGS16 (11720943_a_at) / RFU RGS16 (11720944_at) / Fold change /veh RGS16 (11720944_at) / RFU, VPS4B / Fold change vs veh, VPS4B / RFU, CREB1 / Fold change vs veh, CREB1 / RFU, DNAJC13 / Fold change vs veh, DNAJC13 / RFU, GNAQ / Fold change vs veh, GNAQ / RFU, CDK5R1 / Fold change vs veh, CDK5R1 / RFU, ZRANB3 / Fold change vs veh, ZRANB3 / RFU, CUL4A / Fold change vs veh, CUL4A / RFU, CCNY / Fold change vs veh, CCNY / RFU, UFL1 / Fold change vs veh, UFL1 / RFU, COG3 / Fold change vs veh, COG3 / RFU, DIAPH2 / Fold change vs veh, DIAPH2 / RFU, SKA2 / Fold change vs veh, SKA2 / RFU, AFF3 / Fold change vs veh, AFF3 / RFU, LMF1 / Fold change vs veh, LMF1 / RFU, IPO11 / Fold change vs veh, IPO11 / RFU, DFFB / Fold change vs veh, DFFB / RFU, FOXP1 / Fold change vs veh, FOXP1 / RFU, CARD8 / Fold change vs veh, CARD8 / RFU, STRN3 / Fold change vs veh, STRN3 / RFU, ADK / Fold change vs veh, ADK / RFU, RASSF2 / Fold change vs veh, RASSF2 / RFU, WIPF1 / Fold change vs veh, WIPF1 / RFU, LARP1B / Fold change vs veh, LARP1B / RFU, RASA1 / Fold change vs veh, RASA1 / RFU, RB1 / Fold change vs veh, RB1 / RFU, PPFIA1 / Fold change vs veh, PPFIA1 / RFU, MAT2A / Fold change vs veh, MAT2A / RFU, CCT5 / Fold change vs veh, CCT5 / RFU, WDR92 / Fold change vs veh, WDR92 / RFU, CUX1 / Fold change vs veh, CUX1 / RFU, TTC7A / Fold change vs veh, TTC7A / RFU, TMEM135 / Fold change vs veh, TMEM135 / RFU, DEPTOR / Fold change vs veh, DEPTOR / RFU, CPM / Fold change vs veh, CPM / RFU, DNAJB6 / Fold change vs veh, DNAJB6 / RFU, CACNA2D3 / Fold change vs veh, CACNA2D3 / RFU, DTX4 / Fold change vs veh, DTX4 / RFU, TFCP2 / Fold change vs veh, TFCP2 / RFU, GMCL1 /// GMCL1P1 / Fold change vs veh, GMCL1 /// GMCL1P1 / RFU, AEBP2 / Fold change vs veh, AEBP2 / RFU, SNHG1 /// SNORD22 /// SNORD25 /// SNORD26 /// SNORD27 /// SNORD28 /// SNORD29 /// SNORD31 / Fold change vs veh, SNHG1 /// SNORD22 /// SNORD25 /// SNORD26 /// SNORD27 /// SNORD28 /// SNORD29 /// SNORD31 / Fold change (Aza/veh), C12orf56 (ProbeSet 11735607_a_at) / Fold change (ACY-1035/veh), C12orf56 (ProbeSet 11735607_a_at) / Fold change (Aza/veh), FGFR1OP (ProbeSet 11751329_s_at) / Fold change (ACY-1035/veh), FGFR1OP (ProbeSet 11751329_s_at) / Fold change (Aza/veh), VPS36 (ProbeSet 11739960_a_at) / Fold change (ACY-1035/veh), VPS36 (ProbeSet 11739960_a_at) / RFU SYPL1 (11715823_x_at) / Fold change /veh SYPL1 (11715823_x_at) / RFU IGFBP7 (11715501_s_at) / Fold change /veh IGFBP7 (11715501_s_at) / RFU REEP3 (11722064_at) / Fold change /veh REEP3 (11722064_at) / RFU IGLL1 (11728026_x_at) / Fold change /veh IGLL1 (11728026_x_at): dose or concentration left out as unconfirmed
# Details: ProbeSet 11729384_s_at; LIST D
smiles,measurement,value
Nc1ncn([C@@H]2O[C@H](CO)[C@@H](O)[C@H]2O)c(=O)n1 [azacitidine],"Fold change vs veh, CCNY",0.82
